In patent US7932228B2, “Method of treating bone or prostate cancer with selective bradykinin B1 receptor antagonists” (Societe de Commercialisation des Produits de la Recherche …, priority 2004, dated 2011):

What was measured:
[1] = test system: MAT-LyLu-B2 prostate cancer cells; assay: orthoptic prostate cancer rat model (tumor progression); type: in vivo; details: male Copenhagen rats, 3 mg/kg s.c. daily from day 1, 21 days after surgery, n=5-6, p<0.05; saline 1856±443 mg
Experimental: The potential of a BKB1-R antagonist to inhibit tumor progression in an orthoptic prostate cancer rat model was evaluated. Under anesthesia, male Copenhagen rats were injected in the anterior prostatic lobe with 100 000 MAT-LyLu-B2 prostate cancer cells. One day after the surgery, the animals received a daily injection of either saline or Compound A (3 mg/kg s.c.). At 21 days after the surgery, the animals were sacrificed and the prostate tumor was excised and weighted. Average weight of the prostate and tumor was 1856±443 mg for saline-treated rats and 504±135 mg with Compound A-treated animals (n=5-6 p<0.05). Two other cancerous cell-types (R 3327-G, MAT-Lu) were implanted in rats and similar results were obtained at inhibiting tumor progression dose-dependently over periods of time. A BKB1-Ra was also reported effective at stopping and reversing the progression of established tumor, considering efficacy, reversibility and relapse of treatment. These elements were maintained upon dual and triple combinations with other anti-cancer, anti-angiogenic, anti-proliferative agents such as taxane and platinum related compounds.

PC-3 cells = details: in vitro, cited from earlier work

With “Ac-Orn[Oic^2,(α-Me)Phe^5,D-βNal^7,Ile^8]desArg^9BK [Compound A]” the “Average weight of the prostate and tumor” value [1] was 504 ± 135 mg.

In the case of “Arg Pro Pro Gly Phe Ser Pro Phe (RPPGFSPF; desArg9 BK) [desArg^9-BK]”, the “cell growth and proliferation of PC-3 cells” value (PC-3 cells; BKB1-R agonist alone) is given as “stimulated”.

For [Leu^8]desArg^9-BK, the “effect on desArg^9-BK-stimulated growth of PC-3 cells” value (PC-3 cells; growth stimulated by desArg^9-BK) is listed as “blocked”.
